In patent publication US11434242B2, “Dopamine-b-hydroxylase inhibitors” (BIAL-PORTELA & Cª, S.A., priority 2017, dated 2022):

Target: T1, Dopamine beta hydroxylase (Homo sapiens, UniProt P09172)
T1 construct: 125 μl of plasma; tissue Instituto Português do Sangue Transplantação; host or cells: human plasma from healthy donors
T1 sequence (P09172 40-617 limits assumed): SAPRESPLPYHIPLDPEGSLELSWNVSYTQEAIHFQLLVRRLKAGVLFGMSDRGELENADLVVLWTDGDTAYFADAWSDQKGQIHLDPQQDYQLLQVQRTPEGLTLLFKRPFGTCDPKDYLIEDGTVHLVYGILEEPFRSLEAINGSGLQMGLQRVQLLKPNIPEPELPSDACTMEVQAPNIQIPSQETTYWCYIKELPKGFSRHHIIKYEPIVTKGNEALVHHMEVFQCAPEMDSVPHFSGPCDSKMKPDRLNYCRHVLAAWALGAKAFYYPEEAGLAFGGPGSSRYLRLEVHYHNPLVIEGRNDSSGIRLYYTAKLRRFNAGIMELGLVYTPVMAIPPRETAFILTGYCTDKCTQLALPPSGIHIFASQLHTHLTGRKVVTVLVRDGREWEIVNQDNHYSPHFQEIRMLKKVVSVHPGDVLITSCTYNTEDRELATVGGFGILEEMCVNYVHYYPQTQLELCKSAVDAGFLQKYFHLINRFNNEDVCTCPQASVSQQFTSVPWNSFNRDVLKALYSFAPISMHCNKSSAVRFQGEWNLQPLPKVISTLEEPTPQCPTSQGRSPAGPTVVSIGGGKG
Experiment: Dopamine beta hydroxylase activity in human plasma
Assay type: biochemical
Conditions: for Plasma (0.01 μM), activity in % of control: inhibitor 0.01 μM; for Plasma (0.1 μM), activity in % of control: inhibitor 0.1 μM; for Plasma (1 μM), activity in % of control: inhibitor 1 μM
Description: Furthermore, the ability of a compound to inhibit DβH activity may be assessed in human plasma using the following assay. […]. Dopamine beta hydroxylase activity in human plasma was measured by the method of Nagatsu and Udenfriend (Nagatsu, T. and Udenfriend, S. “Photometric assay of dopamine-μ-hydroxylase activity in human blood.” Clin. Chem. 18(9) 980-983, 1972) with minor modifications. Catalase, N-ethylmaleimide, tyramine, disodium fumarate, pargyline, sodium acetate, ascorbic acid, copper sulfate and octopamine were obtained from Sigma Chemical Co., St. Louis, Mo. 63178. Human plasma samples were obtained from healthy donors (Instituto Português do Sangue Transplantação, Centro Sangue Transplantação, Porto, Portugal). From date of collection, plasma was stored at −80° C. until use. Test compounds were initially prepared in dimethyl sulfoxide at a concentration of 10 mM and diluted in dimethyl sulfoxide to the required concentrations. Test compounds were further diluted in ultrapure water to a concentration 20-fold to that of the final concentration to be tested. Final concentrations of test compounds were 10, 100 and 1000 nM. The various reagents used to make up the incubation buffer were premixed and consisted of the following components: sodium acetate buffer (1 M, pH 5.0, 18 ml), sodium fumarate (0.2 M, 4.5 ml), ascorbic acid (0.2 M, 4.5 ml, freshly prepared), pargyline (20 mM, freshly prepared, 4.5 ml), N-ethylmaleimide (0.2 M, 4.5 ml), catalase (10 000 U/ml, 9 ml), copper sulfate (20 μM, 4.5 ml) and 4.5 ultrapure water. The standard incubation mixture (total volume, 950 μl) contained: 50 μL of compound or vehicle (dimethyl sulfoxide 2%); 700 μL of incubation buffer; 125 μl of plasma (or saline for blank reaction or standard curve); 75 μl of saline. The reaction mixture was placed in water bath, shaking at 37° C. and pre-incubated for 10 minutes. Tyramine (0.5 M) was added and incubation proceeded for 45 minutes. The reaction contents were exposed to air. A sample of enzyme preparation (with 125 μl of plasma) that had been added perchloric acid 2 M at the end of the pre-incubation period was used as blank. A blank for each of the tested compounds was used. For octopamine standard curve, perchloric acid 2 M was replaced by increasing concentrations of octopamine prepared in perchloric acid 2 M (0.5, 1, 2.5, 5, 7.5, 10, 15, 20 μg/ml, final concentration). The incubation was stopped by adding 200 μl of 2 M molar perchloric acid, and the mixture was centrifuged at 9000 g for 5 min. The supernatant fluid (800 μL) was transferred to a column (SPE cartridge ISOLUTE SCX-3, 100 mg) and centrifuged at 150 g for 2 min. The column was washed two more times with 0.5 ml of ultrapure water by centrifuging at 150 g for 2 min. The adsorbed octopamine was eluted twice with 0.3 ml of 4 M ammonium hydroxide by centrifuging at 150 g for 2 min. Octopamine in the eluate was then converted to p-hydroxybenzaldehyde by adding 200 μl of sodium periodate (2%) and incubating for 6 min. Excess periodate was than reduced by adding 200 μl of sodium metabisulfite (10%). Absorbance was measured at […] in a 96-well plate by use of a SpectraMAX plus 384 (Molecular Devices) with software SOFTmax® PRO Software 5.3 spectrophotometer. Absorbance was linear with octopamine concentration from 0.5 to 20 μg/ml. Dopamine beta hydroxylase activity is determined as nmol of octopamine formed/ml of plasma/hour and effect of compounds is presented as % control.
Results are reported in the table below as activity in % of control at the inhibitor concentration tested.

| Compound | Plasma (0.01 μM), activity in % of control | Plasma (0.1 μM), activity in % of control | Plasma (1 μM), activity in % of control |
| --- | --- | --- | --- |
| Cn1c(CC(=O)N2CCNCC2)c2n(c1=S)C[C@@]1(c3cc(Cl)ccc3F)C[C@@H]21 [Example 320, 2-((5aS,6aR)-5a-(5-chloro-2-fluorophenyl)-2-methyl-3-thioxo-2,3,5,5a,6,6a-hexahydrocyclopropa[3,4]pyrrolo[1,2-c]imidazol-1-yl)-1-(piperazin-1-yl)ethan-1-one] | 90.3 % of control | 31.1 % of control | – |
| Cn1c(CC(=O)NC2CCOCC2)c2n(c1=S)C[C@@]1(c3c(F)ccc(Cl)c3F)C[C@@H]21 [Example 423, 2-((5aS,6aR)-5a-(3-chloro-2,6-difluorophenyl)-2-methyl-3-thioxo-2,3,5,5a,6,6a-hexahydrocyclopropa[3,4]pyrrolo[1,2-c]imidazol-1-yl)-N-(tetrahydro-2H-pyran-4-yl)acetamide] | 18.5 % of control | 1.7 % of control | – |
| O=C(Cc1[nH]c(=S)n2c1C[C@H](c1c(F)ccc(Br)c1F)C2)NC1CCOC1=O (stereo partly drawn) [Example 22, 2-((R)-6-(3-bromo-2,6-difluorophenyl)-3-thioxo-2,5,6,7-tetrahydro-3H-pyrrolo[1,2-c]imidazol-1-yl)-N-(2-oxotetrahydrofuran-3-yl)acetamide] | – | 45.1 % of control | 4.4 % of control |
| O=C(Cc1[nH]c(=S)n2c1[C@@H]1C[C@]1(c1cc(Br)ccc1F)C2)N1CCCC1 [Example 70, 2-((5aS,6aR)-5a-(5-bromo-2-fluorophenyl)-3-thioxo-2,3,5,5a,6,6a-hexahydrocyclopropa[3,4]pyrrolo[1,2-c]imidazol-1-yl)-1-(pyrrolidin-1-yl)ethan-1-one] | – | 36.6 % of control | 2.9 % of control |
| Cl.Fc1ccc(F)c([C@H]2Cc3c(CCNCC4CCOCC4)[nH]c(=S)n3C2)c1F [Example 473, (R)-1-(2-(((tetrahydro-2H-pyran-4-yl)methyl)amino)ethyl)-6-(2,3,6-trifluorophenyl)-2,5,6,7-tetrahydro-3H-pyrrolo[1,2-c]imidazole-3-thione hydrochloride] | 98.9 % of control | 46.2 % of control | – |
| NC(=O)Cc1[nH]c(=S)n2c1C[C@@H](c1c(F)ccc(Br)c1F)C2 [Example 96, (S)-2-(6-(3-bromo-2,6-difluorophenyl)-3-thioxo-2,5,6,7-tetrahydro-3H-pyrrolo[1,2-c]imidazol-1-yl)acetamide] | – | 22.4 % of control | 0.8 % of control |
| O=C(NCc1[nH]c(=S)n2c1C[C@@H](c1c(F)ccc(Cl)c1F)C2)C1CC1 [Example 220, (S)—N-((6-(3-chloro-2,6-difluorophenyl)-3-thioxo-3,5,6,7-tetrahydro-2H-pyrrolo[1,2-c]imidazol-1-yl)methyl)cyclopropanecarboxamide] | 76.5 % of control | 17.7 % of control | – |
| CN(Cc1cccnc1)C(=O)Cc1[nH]c(=S)n2c1C[C@@H](c1c(F)ccc(Cl)c1F)C2 [Example 134, (S)-2-(6-(3-chloro-2,6-difluorophenyl)-3-thioxo-2,5,6,7-tetrahydro-3H-pyrrolo[1,2-c]imidazol-1-yl)-N-methyl-N-(pyridin-3-ylmethyl)acetamide] | 24.9 % of control | 3.2 % of control | – |
| Cn1c(CC(=O)NC2CCCCC2)c2n(c1=S)C[C@@]1(c3cc(Cl)ccc3F)C[C@@H]21 [Example 302, 2-((5aS,6aR)-5a-(5-chloro-2-fluorophenyl)-2-methyl-3-thioxo-2,3,5,5a,6,6a-hexahydrocyclopropa[3,4]pyrrolo[1,2-c]imidazol-1-yl)-N-cyclohexylacetamide] | 62.7 % of control | 7.7 % of control | – |
| O=C(Cc1[nH]c(=S)n2c1C[C@H](c1c(F)ccc(F)c1F)C2)N[C@@H]1CCCOC1 [Example 365, N—((R)-tetrahydro-2H-pyran-3-yl)-2-((R)-3-thioxo-6-(2,3,6-trifluorophenyl)-2,5,6,7-tetrahydro-3H-pyrrolo[1,2-c]imidazol-1-yl)acetamide] | 101.3 % of control | 56.9 % of control | – |
| Cl.O=C(Cc1[nH]c(=S)n2c1C[C@@H](c1c(F)ccc(Cl)c1F)C2)NCCc1ccccn1 [Example 106, (S)-2-(6-(3-chloro-2,6-difluorophenyl)-3-thioxo-2,5,6,7-tetrahydro-3H-pyrrolo[1,2-c]imidazol-1-yl)-N-(2-(pyridin-2-yl)ethyl)acetamide hydrochloride] | – | 33.9 % of control | 4.1 % of control |
| O=C(Cc1[nH]c(=S)n2c1C[C@H](c1c(F)c(F)cc(F)c1F)C2)N1CCC2(CC1)OCCO2 [Example 87, (R)-1-(1,4-dioxa-8-azaspiro[4.5]decan-8-yl)-2-(6-(2,3,5,6-tetrafluorophenyl)-3-thioxo-2,5,6,7-tetrahydro-3H-pyrrolo[1,2-c]imidazol-1-yl)ethan-1-one] | – | 62.8 % of control | 13.8 % of control |
| Cn1c(CC(=O)O)c2n(c1=S)C[C@H](c1cc(Cl)ccc1F)C2 [Example 230, (S)-2-(6-(5-chloro-2-fluorophenyl)-2-methyl-3-thioxo-2,5,6,7-tetrahydro-3H-pyrrolo[1,2-c]imidazol-1-yl)acetic acid] | 82.0 % of control | 41.6 % of control | – |
| Cl.Cn1c(CCNC2CCCCC2)c2n(c1=S)C[C@@]1(c3cc(Br)ccc3F)C[C@@H]21 [Example 341, (5aS,6aR)-5a-(5-bromo-2-fluorophenyl)-1-(2-(cyclohexylamino)ethyl)-2-methyl-5,5a,6,6a-tetrahydrocyclopropa[3,4]pyrrolo[1,2-c]imidazole-3(2H)-thione hydrochloride] | 91.1 % of control | 33.6 % of control | – |
| O=C(Cc1[nH]c(=S)n2c1[C@@H]1C[C@]1(c1cc(Cl)ccc1F)C2)Nc1cccnc1 [Example 171, 2-((5aS,6aR)-5a-(5-chloro-2-fluorophenyl)-3-thioxo-2,3,5,5a,6,6a-hexahydrocyclopropa[3,4]pyrrolo[1,2-c]imidazol-1-yl)-N-(pyridin-3-yl)acetamide] | 40.4 % of control | 3.7 % of control | – |
| Cn1c(CC(=O)N[C@@H]2CCOC2)c2n(c1=S)C[C@@H](c1c(F)cccc1F)C2 [Example 446, 2-((R)-6-(2,6-difluorophenyl)-2-methyl-3-thioxo-2,5,6,7-tetrahydro-3H-pyrrolo[1,2-c]imidazol-1-yl)-N—((R)-tetrahydrofuran-3-yl)acetamide] | 83.0 % of control | 62.9 % of control | – |
